Source: patent publication US5234948A, “Optically active alkylenedioxybenzene derivatives and their use in therapy” (Mitsubishi Kasei Corporation, priority 1990, dated 1993)
Structures can show the parent of a compound that is named as a salt.

Experiments:
5-HT1A receptor [1] = target: T1, 5-HT1A receptor (Rattus norvegicus, UniProt P19327); assay: biochemical; assay type: binding; conditions: displacement of [3H]8-OH-DPAT, rat brain membranes, 37° C., 10 minutes; test compounds as HCl salt
T1 sequence (P19327 1-422): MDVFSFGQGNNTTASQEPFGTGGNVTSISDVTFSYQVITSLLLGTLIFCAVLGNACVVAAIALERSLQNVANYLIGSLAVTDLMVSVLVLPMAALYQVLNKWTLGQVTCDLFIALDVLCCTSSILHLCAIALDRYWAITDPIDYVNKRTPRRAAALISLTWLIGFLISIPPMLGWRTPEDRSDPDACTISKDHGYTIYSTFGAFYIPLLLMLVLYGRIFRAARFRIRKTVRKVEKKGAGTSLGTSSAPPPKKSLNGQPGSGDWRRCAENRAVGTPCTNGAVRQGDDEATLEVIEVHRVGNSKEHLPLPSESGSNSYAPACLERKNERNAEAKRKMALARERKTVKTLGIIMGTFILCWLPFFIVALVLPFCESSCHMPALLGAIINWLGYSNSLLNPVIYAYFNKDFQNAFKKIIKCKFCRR
Experimental: Thus, rat brain was homogenized in Tris-HCl buffer and centrifuged. The resultant precipitates were homogenized again with Tris-HCl buffer and incubated at 37° C. for ten minutes. The mixture was centrifuged again, and the precipitates were homogenized with Tris-HCl buffer containing pergiline, calcium chloride, and ascorbic acid to obtain a membrane preparation for use in the binding assay.
The preparation was mixed with [3H]8-OH-DPAT and a compound to be tested, and incubated at 37° C. for 10 minutes, filtered with whatman GF/B filter. Radioactivity remaining on the filter was measured by […].
Affinity of the test compound to 5-HT1A receptor is represented by Ki value which is calculated from the following equation. [formula] wherein [L] is the concentration of [3H]8-OH-DPAT, Kd is a dissociation constant, and IC50 is the concentration of test compound requisite for attaining 50% inhibition of the binding of [3H]8-OH-DPAT.

rats = assay: conflict test (modified method of Vogel et al), anxiolytic activity; assay type: in vivo, rat; conditions: oral, 1 hour after administration, control 7.4
Experimental: The conflict test was performed to examine the anxiolytic activity of compounds. A modification of the method of Vogel et al (Psychopharmacology21, 1, 1971) was used.
Rats were deprived of water for 38 hours prior to the first training session (unpunished session). Each animal was placed in a conflict test apparatus. The rat was allowed to drink water through a spout, and the frequency of drinking action within 10 min was counted. Only rats making more than 100 licks progressed to a further 24 hr deprivation of water. Twenty four hours after the unpunished session, the rat was placed again in the test box. The second session (pre-drug punished session) consisting of a 3 min period started when the rat completed 20 licks and received the first electric shock. After every 20 unpunished licks, subsequent licking was punished. Only rats in which the number of receiving the shocks was reduced by at most 25 times during the pre-drug punished session were included in the test.
The compound to be tested was orally administered to each rat. One hour after the administration, the rat was re-placed in the apparatus to be examined. The number of shocks was counted for three minutes. Buspirone, an anxioselective anxiolytic drug, was used as a positive control.
The anti-conflict activity was evaluated to be positive when the number of shocks in the treated group was higher than that in the control group.

male and female rats = assay: Acute Toxicity, oral, 7-days observation; assay type: in vivo, rat; conditions: p.o., suspended in 0.5% CMC-Na
Experimental: The compounds (I) suspended in 0.5% CMC-Na aqueous solution were orally administered to male and female rats, and 7-days observation was conducted. ALD (approximate lethal dose) value for Compound No. 1 was 100 mg/kg (p.o.).

5-HT1A receptor [2] = conditions: in words, literature; cited from earlier work

Ki (5-HT1A receptor [1]) | Structure (SMILES) | further results
1.6 nM | c1ccc2c(c1)OCC(CNCCCOc1ccc3c(c1)OCO3)O2 (racemic) [No. 1 (dl)] | Frequency of receiving the shocks (rats; 0.25 mg/kg): 20.9 times/3 minutes
2.5 nM | c1ccc2c(c1)OCC(CNCCCOc1ccc3c(c1)OCCO3)O2 (racemic) [No. 2 (dl)] | –
7.6 nM | c1ccc2c(c1)OCC(CNCCCOc1ccc3c(c1)OCCCO3)O2 (racemic) [No. 3 (dl)] | –
2.9 nM | c1ccc2c(c1)OCC(CNCCCCOc1ccc3c(c1)OCCCO3)O2 (racemic) [No. 6 (dl)] | –
1.84 nM | c1ccc2c(c1)OC[C@H](CNCCCCCOc1ccc3c(c1)OCO3)O2 [Compound No. 7, 5-[5-{(2S)-(1,4-Benzodioxan-2-ylmethyl) -amino}pentyloxy]-1,3-benzodioxol hydrochloride] | –
3.9 nM | c1ccc2c(c1)OC[C@@H](CNCCCOc1ccc3c(c1)OCO3)O2 [No. 1 (R)] | Frequency of receiving the shocks (rats; 0.5 mg/kg): 12.5 times/3 minutes

Continued, molecule first:

Structure (SMILES) | Ki (5-HT1A receptor [1]) | further results
c1ccc2c(c1)OCC(CNCCCCCOc1ccc3c(c1)OCO3)O2 (racemic) [No. 7 (dl)] | 4.09 nM | –
c1ccc2c(c1)OCC(CNCCCOc1cccc3c1OCO3)O2 (racemic) [No. 13 (dl)] | 9.7 nM | –
c1ccc2c(c1)OC[C@H](CNCCCOc1ccc3c(c1)OCO3)O2 [Compound No. 1, 5-[3-{(2S)-(1,4-Benzodioxan-2-ylmethyl) -amino}propoxy[-1,3-benzodioxol hydrochloride] | 0.29 nM | ALD (approximate lethal dose) (male and female rats): 100 mg/kg; Frequency of receiving the shocks (rats; 0.05 mg/kg): 20.1 times/3 minutes
c1ccc2c(c1)OC[C@H](CNCCCCOc1ccc3c(c1)OCO3)O2 [Compound No. 4, 5-[4-{(2S)-(1,4-Benzodioxan-2-ylmethyl) -amino}butoxy]-1,3-benzodioxol hydrochloride] | 0.91 nM | –
O=C1c2ccccc2S(=O)(=O)N1CCCCN1CCN(c2ncccn2)CC1 [Ipsapirone, 2-{4-[4-(2-pyrimidinyl)-1-piperazynyl]butyl}-1,2-benzisothiazol-3-(2H)one-1,1-dioxydehydrochloride] | – | 5-HT1A receptor binding (known compounds) (5-HT1A receptor [2]): 5-HT1A receptor-binding compounds
O=C1C2C3CCC(C3)C2C(=O)N1CCCCN1CCN(c2ncccn2)CC1 (stereo not drawn) [SM-3997, 3aα, 4β, 7β, 7aβ-hexahydro-2-{4-[4-(2-pyrimidinyl)-1-piperazinyl]butyl}-4,7-methan-1H-isoindol-1,3(2H)dione dihydrogen citrate] | – | 5-HT1A receptor binding (known compounds) (5-HT1A receptor [2]): 5-HT1A receptor-binding compounds
c1ccc2c(c1)OC[C@H](CNCCCOc1ccc3c(c1)OCCO3)O2 [compound 2] | – | Frequency of receiving the shocks (rats; 0.2 mg/kg): 21.8 times/3 minutes
c1ccc2c(c1)OC[C@H](CNCCCOc1ccc3c(c1)OCCCO3)O2 [compound 3] | – | Frequency of receiving the shocks (rats; 0.2 mg/kg): 18.0 times/3 minutes
